# Data taken from article PMC8513901, “Cooperative stabilisation of 14-3-3σ protein–protein interactions via covalent protein modification” (Chemical Science, 2021).
# Target: T1, 14-3-3σ (Homo sapiens, UniProt P31947)
# T1 construct: gene SFN; with ERα phospho-peptide (588AEGFPApTV595 in the crystal)
# T1 sequence (P31947 1-248): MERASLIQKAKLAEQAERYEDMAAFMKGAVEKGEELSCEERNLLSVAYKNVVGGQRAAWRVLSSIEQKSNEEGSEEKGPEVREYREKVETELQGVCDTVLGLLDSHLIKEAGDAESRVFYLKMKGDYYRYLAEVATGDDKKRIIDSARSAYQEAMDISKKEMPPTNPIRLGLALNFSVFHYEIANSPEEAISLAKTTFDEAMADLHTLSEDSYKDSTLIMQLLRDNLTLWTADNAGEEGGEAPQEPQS
# Assay: crystal structure with ERα phospho-peptide and […]; FP dose-response and ITC stabilisation
# Type: binding
smiles,measurement,value
"C=CC(C)(C)OC[C@H]1O[C@H](O[C@@H]2C3=C([C@H](C)COC(C)=O)C[C@H](O)[C@]3(C)/C=C3/[C@@H](COC)CC[C@H]3[C@@H](C)[C@H]2O)[C@H](O)[C@@H](OC(C)=O)[C@@H]1O [compound 1, fusicoccin A]",EC50,880 nM
